The values below are quoted from earlier work in patent publication US8097726B2, “Huperzine a compound for treatment of alzheimer's disease” (priority 2006, dated 2012).

Molecules are shown by their SMILES.

For data set [1] the following is noted: administered orally at 0.2 mg twice a day for 8 weeks; AD patients.
For data set [2] the following is noted: rapidly eliminated from the kidneys.

`C/C=C1\[C@H]2C=C(C)C[C@]1(N)c1ccc(=O)[nH]c1C2` [huperzine A]: the “patients with significant improvement in memory, cognition and behavior” value in data set [1] is 58%. The half-life in plasma in data set [2] is 4 to 5 h.
